Measured values: ChEMBL document CHEMBL1151402, “Normaytancyprine, A Minor Antileukemic Ansa Macrolide From Putterlickia verrucosa” (1982)
≈ marks a conversion by molar mass, not a printed value.

Tests used:
P388 = experiment: In vivo cytotoxicity against mouse P388 cells at 0.4 to 12.5 mg/kg; type: functional; conditions: dose mg/kg 0.4-12.5
KB = experiment: Cytotoxicity against human KB cells; type: functional; conditions: read-out: ED50 (the source's name)

## COc1cc2cc(c1Cl)NC(=O)C[C@H](OC(=O)[C@H](C)N(C)C(=O)C1C(C)C1C)[C@]1(C)O[C@H]1[C@H](C)[C@@H]1C[C@@](O)(NC(=O)O1)[C@H](OC)/C=C/C=C(\C)C2 (some centres not stated) [NORMAYTANCYPRINE]
P388
  T/C: 145%
KB
  EC50: 0.001 ng/mL (≈ 0.00137 nM)
